Values of other authors as cited in patent US9144554B2, “Topical compositions for use in the prevention and/or treatment of dermatitis” (priority 2011, dated 2015).

Conditions: medicaments used to treat dermatitis

Row | Molecule | Toxicity
1 | CN(Cc1cnc2nc(N)nc(N)c2n1)c1ccc(C(=O)N[C@@H](CCC(=O)O)C(=O)O)cc1 [methotrexate] | toxic
2 | ivermectin | toxic
